# Target: T1, Purified ATP13A2 (Homo sapiens, UniProt Q9NQ11)
# T1 sequence (Q9NQ11 1-1175 isoform Q9NQ11-3): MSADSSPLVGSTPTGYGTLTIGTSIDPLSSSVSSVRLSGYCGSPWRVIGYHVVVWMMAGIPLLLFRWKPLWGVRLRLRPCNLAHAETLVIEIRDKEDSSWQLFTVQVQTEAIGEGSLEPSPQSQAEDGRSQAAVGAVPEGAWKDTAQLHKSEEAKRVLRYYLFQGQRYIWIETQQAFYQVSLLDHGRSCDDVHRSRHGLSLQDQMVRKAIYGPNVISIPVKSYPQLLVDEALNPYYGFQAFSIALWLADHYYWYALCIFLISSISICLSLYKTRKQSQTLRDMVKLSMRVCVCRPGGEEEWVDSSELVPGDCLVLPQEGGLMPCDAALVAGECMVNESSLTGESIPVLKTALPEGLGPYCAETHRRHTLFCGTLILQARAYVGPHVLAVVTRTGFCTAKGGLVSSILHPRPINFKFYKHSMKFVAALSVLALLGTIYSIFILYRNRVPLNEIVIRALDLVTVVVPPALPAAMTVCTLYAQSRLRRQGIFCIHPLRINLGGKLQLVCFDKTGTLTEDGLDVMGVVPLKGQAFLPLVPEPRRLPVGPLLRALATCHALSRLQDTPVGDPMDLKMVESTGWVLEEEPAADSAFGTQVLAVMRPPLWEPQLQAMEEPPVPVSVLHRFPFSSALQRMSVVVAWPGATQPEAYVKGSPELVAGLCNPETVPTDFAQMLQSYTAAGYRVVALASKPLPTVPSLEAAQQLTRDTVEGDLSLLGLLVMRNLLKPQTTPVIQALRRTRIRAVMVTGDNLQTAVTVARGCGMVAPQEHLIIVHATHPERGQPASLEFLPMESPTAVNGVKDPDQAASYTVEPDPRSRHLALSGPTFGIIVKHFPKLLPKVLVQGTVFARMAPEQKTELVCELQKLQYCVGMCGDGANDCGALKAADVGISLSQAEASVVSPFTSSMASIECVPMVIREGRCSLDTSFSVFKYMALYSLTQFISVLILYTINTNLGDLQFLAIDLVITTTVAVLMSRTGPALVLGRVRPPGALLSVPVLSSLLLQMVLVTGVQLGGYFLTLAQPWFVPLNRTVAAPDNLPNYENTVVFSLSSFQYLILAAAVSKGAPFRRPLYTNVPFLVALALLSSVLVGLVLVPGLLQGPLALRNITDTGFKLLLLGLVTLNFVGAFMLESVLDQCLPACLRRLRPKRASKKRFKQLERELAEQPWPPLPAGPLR
# Assay: ATPase assay (ADP-Glo Max), purified ATP13A2 from yeast expression system
# Assay type: biochemical
# Parameters: we obtained >95% pure, full length and solubilized ATP13A2; biotin acceptor domain (BAD) tag behind a thrombin cleavage site (C, cleaved yes); made in house; host or cells: S. cerevisiae W303-1B/Gal4-ΔPep4, pYeDP60 vector
# Settings: for Vmax ± SEM: Purified ATP13A2 with 125 µM PA and 125 µM PI(3,5)P2
# Experimental: ATPase assay - The ATPase activity of ATP13A2 was assessed using a commercially available luminescence assay (ADP-Glo Max assay, Promega) that monitors the production of ADP via luciferase activity. The reactions were performed for 30 min (37°C) in a final volume of 25 µl. The assay reaction mixture contained 50 mM MOPS-KOH (pH 7), 100 mM KCI, 11 mM MgCl2, 1 mM DTT, 195 µM DDM, various concentrations of the indicated compound, and either microsomes (5 µg) harvested from SH-SY5Y cells overexpressing ATP13A2 (WT or mutants) or purified ATP13A2 (0.5 µg). When purified ATP13A2 was used, we included 125 µM PA, 125 µM PI(3,5)P2 and 19.5 µM DDM in the reaction buffer. The assay was started by the addition of 5 mM ATP and was terminated by adding 25 µl of ADP-Glo Reagent. The 96-well plate was then incubated for 40 min at room temperature, followed by the addition of 50 µl of ADP-Glo Max Detection Reagent. After 40 min, luminescence was detected using a FlexStation 3.0 system (Molecular Devices). Dose-response curves and n/Km/Vmax values were calculated using GraphPad Prism Software (GraphPad Software Inc.).
# Transformation and overexpression of ATP13A2 in yeast - The S. cerevisiae W303-1B/Gal4-ΔPep4 strain (leu2-3, his3-11,15, trp1-1::TRP1-GAL10-GAL4, ura3-1, ade2-1, canr, cir^+, ΔPep4 MAT; a kind gift from Rosa Lopez Marques) was transformed according to the lithium acetate/single-stranded carrier DNA/polyethylene glycol method [Gietz, R. D. & Woods, R. A. Methods Enzymol 350, 87-96 (2002)], with the pYeDP60 vector containing a yeast codon optimized version of human ATP13A2 variant 2 (WT or the catalytically dead E343A mutant) followed by a thrombin cleavage site and a C-terminal BAD tag [Azouaoui, H. et al. PLoS One 9, e112176, (2014); Jidenko, M. et al.Protein Expr Purif 48, 32-42, (2006)]. The transformation mixture was grown for 48 h at 30°C on minimal medium agar plates lacking uracil (0.54% yeast nitrogen base without amino acids, 0.12% yeast drop-out mix without Ura, 2% glucose, and 2% agar) to select yeast colonies that acquired the plasmid. These colonies were then cultured in 20 ml of MM-Ura medium (0.67% yeast nitrogen base without amino acids, 0.19% yeast drop-out mix without Ura, and 2% glucose) and grown for 24 h at 28°C and 200 rpm. The MM-Ura yeast pre-culture was used to inoculate 100 ml of MM-Ura medium to a final OD600 of 0.2, followed by a 12 h incubation period (28°C and 200 rpm). The second pre-culture was inoculated into 4.5 l of YPGE2X medium (2% yeast extract, 2% bactopeptone, 1% glucose, and 2.7% ethanol) to a final OD600 of 0.05 and grown for 36 h (28°C and 175 rpm). ATP13A2-BAD expression was induced with 2% galactose, followed by a second galactose induction 12 h later. After another 12 h, the pellet was collected (1,000 x g; 10 min; 4°C).
# Yeast membrane preparation - Yeast cells were broken with glass beads using a BeadBeater (BioSpec products). The lysis buffer contained 50 mM Tris-HCI (pH 7.5), 1 mM EDTA, 0.6 M sorbitol, 1 mM phenylmethylsulfonyl fluoride and SigmaFast protease inhibitor. To remove cell debris and nuclei, the crude extract was centrifuged at 2,000 x g for 20 min (4°C). The supernatant (S1) was centrifuged at 20,000 x g for 20 min (4°C) to pellet the heavy membrane fraction (P2), and the resulting supernatant (S2) was further centrifuged at 200,000 x g for 1 h (4°C). The resulting pellet (i.e., the light membrane fraction, P3) was resuspended in 20 mM HEPES-Tris (pH 7.4), 0.3 M sucrose and 0.1 mM CaCl2. The total protein concentration was determined using a Bradford assay (B6916, Sigma-Aldrich).
# ATP13A2-BAD purification - The method used to purify ATP13A2 was based on the purification of overexpressed Drs2p from yeast membranes. Yeast P3 membranes were diluted to 5 mg of total protein/ml in SSR buffer (50 mM MOPS-KOH (pH 7), 100 mM KCI, 20% glycerol, 5 mM MgCl2, 1 mM DTT, and SigmaFast protease inhibitor cocktail) and solubilized using DDM, with a detergent to protein ratio of 1:1.
SMILES,Vmax ± SEM,ATPase activity of purified ATP13A2 (indicated SPM concentrations)
"NCCCCNCCCN [Spermidine, spermidine]",194 ± 26 nmol ADP/mg/min,–
"NCCCNCCCCNCCCN [Spermine, spermine]",159 ± 10 nmol ADP/mg/min,stimulated the ATPase activity

# From patent EP3839043A1, “SCREENING METHODS FOR COMPOUNDS MODULATING POLYAMINE TRANSPORT” (Katholieke Universiteit Leuven, priority 2019, dated 2021)
